Among the data in patent US12465588B2, “Indole carboxamide derivative and pharmaceutical composition containing same” (KUKJE PHARMA CO., LTD., priority 2019, dated 2025) are IC50 values, retold here.

Structures are written as SMILES. A value given as a limit tells only on which side of the number the result lay.

This experiment relates to A549 human lung cancer cells. In words: Measurement of PGE2 in IL-1β-treated A549 human lung cancer cells. It counts as cell-based. As to conditions: PGE2 production, A549 cell, IL-1β 1 ng/mL, 48 hours. The method, then: Samples at various concentrations were added at 24 hours after A549 human lung cancer cells were seeded. After 1 hour, IL-1β of 1 ng/mL was added. The cells were cultured for 48 hours and then the culture supernatant was collected. PGE2 of the collected supernatant was measured according to the manufacturer's instructions using a PGE2 EIA kit.
Regarding `CC(C)C(=O)NCc1ccc(Cl)c(C(=O)Nc2ccc3c(c2)cc(C(=O)Nc2cccc(F)c2)n3C)c1` [Compound 1, 5-(2-chloro-5-(isobutyramidomethyl)benzamido)-N-(3-fluorophenyl)-1-methyl-1H-indole-2-carboxamide], the IC50 is 277 nM. In other words, the sub-micromolar range. `CC(C)C(=O)NCc1ccc(Cl)c(C(=O)Nc2ccc3c(c2)cc(C(=O)Nc2ccc(F)cc2)n3C)c1` [Compound 2, 5-(2-chloro-5-(isobutyramidomethyl)benzamido)-N-(4-fluorophenyl)-1-methyl-1H-indole-2-carboxamide] displayed an IC50 of 237 nM. With `CC(C)C(=O)NCc1ccc(Cl)c(C(=O)Nc2ccc3c(c2)cc(C(=O)Nc2cccc(Cl)c2)n3C)c1` [Compound 3, 5-(2-chloro-5-(isobutyramidomethyl)benzamido)-N-(3-chlorophenyl)-1-methyl-1H-indole-2-carboxamide] the figure was 209 nM; with `CC(C)C(=O)NCc1ccc(Cl)c(C(=O)Nc2ccc3c(c2)cc(C(=O)Nc2ccc(C(F)(F)F)cc2)n3C)c1` [Compound 8, 5-(2-chloro-5-(isobutyramidomethyl)benzamido)-1-methyl-N-(4-(trifluoromethyl)phenyl)-1H-indole-2-carboxamide], 5.22 nM; with `CC(C)C(=O)NCc1ccc(Cl)c(C(=O)Nc2ccc3c(c2)cc(C(=O)Nc2ccc(Br)cc2)n3C)c1` [Compound 13, N-(4-bromophenyl)-5-(2-chloro-5-(isobutyramidomethyl)benzamido)-1-methyl-1H-indole-2-carboxamide], 26.4 nM. `CC(C)C(=O)NCc1ccc(Cl)c(C(=O)Nc2ccc3c(c2)cc(C(=O)Nc2cccc(-c4ccc(C(F)(F)F)cc4)c2)n3C)c1` [Compound 16, 5-(2-chloro-5-(isobutyramidomethyl)benzamido)-1-methyl-N-(4′-(trifluoromethyl)-[1,1′-biphenyl]-3-yl)-1H-indole-2-carboxamide] came in with an IC50 of 7.19 nM.

In the case of `CC(C)C(=O)NCc1ccc(Cl)c(C(=O)Nc2ccc3c(c2)cc(C(=O)Nc2cc(F)cc(C(F)(F)F)c2)n3C)c1` [Compound 17, 5-(2-chloro-5-(isobutyramidomethyl)benzamido)-N-(3-fluoro-5-(trifluoromethyl)phenyl)-1-methyl-1H-indole-2-carboxamide], the IC50 was found to be 88.1 nM. Compared with the last molecule, the IC50 is about 12-fold higher. With `CC(C)C(=O)NCc1ccc(Cl)c(C(=O)Nc2ccc3c(c2)cc(C(=O)Nc2ccc(C(F)(F)F)nc2)n3C)c1` [Compound 18, 5-(2-chloro-5-(isobutyramidomethyl)benzamido)-1-methyl-N-(6-(trifluoromethyl)pyridin-3-yl)-1H-indole-2-carboxamide], the concentration for half-maximal inhibition (IC50) is 60 nM.

As to `CC(C)C(=O)NCc1ccc(Cl)c(C(=O)Nc2ccc3c(c2)cc(C(=O)Nc2cc(-c4ccc(C(F)(F)F)cc4)n[nH]2)n3C)c1` [Compound 19, 5-(2-chloro-5-(isobutyramidomethyl)benzamido)-1-methyl-N-(3-(4-(trifluoromethyl)phenyl)-1H-pyrazole-5-yl)-1H-indole-2-carboxamide], the IC50 was greater than 100 nM.

In turn, `Cc1c(-c2ccc(C(F)(F)F)cc2)n[nH]c1NC(=O)c1cc2cc(NC(=O)c3cc(CNC(=O)C(C)C)ccc3Cl)ccc2n1C` [Compound 20, 5-(2-chloro-5-(isobutyramidomethyl)benzamido)-1-methyl-N-(4-methyl-3-(4-(trifluoromethyl)phenyl)-1H-pyrazol-5-yl)-1H-indole-2-carboxamide] had a 50% inhibitory concentration (IC50) of 6.87 nM.

In turn, `CC(C)C(=O)NCc1ccc(Cl)c(C(=O)Nc2ccc3c(c2)cc(C(=O)N2CCN(c4ncccn4)CC2)n3C)c1` [Compound 21, 2-chloro-5-(isobutyramidomethyl)-N-(1-methyl-2-(4-(pyrimidin-2-yl)piperazin-1-carbonyl)-1H-indole-5-yl)benzamide] returned an IC50 greater than 100 nM. With `Cc1cc(Cl)ccc1NC(=O)c1cc2cc(NC(=O)c3cc(CNC(=O)C(C)C)ccc3Cl)ccc2n1C` [Compound 22, N-(4-chloro-2-methylphenyl)-5-(2-chloro-5-(isobutyramidomethyl)benzamido)-1-methyl-1H-indole-2-carboxamide] the figure was 27.4 nM; with `Cc1cc(F)ccc1NC(=O)c1cc2cc(NC(=O)c3cc(CNC(=O)C(C)C)ccc3Cl)ccc2n1C` [Compound 23, 5-(2-chloro-5-(isobutyramidomethyl)benzamido)-N-(4-fluoro-2-methylphenyl)-1-methyl-1H-indole-2-carboxamide], 45 nM; with `CC(C)C(=O)NCc1ccc(Cl)c(C(=O)Nc2ccc3c(c2)cc(C(=O)N[C@@H](C)c2ccc4ccccc4c2)n3C)c1` [Compound 31, (S)-5-(2-chloro-5-(isobutyramidomethyl)benzamido)-1-methyl-N-(1-(naphthalen-2-yl)ethyl)-1H-indole-2-carboxamide], 9.22 nM. With `CC(C)C(=O)NCc1ccc(Cl)c(C(=O)Nc2ccc3c(c2)cc(C(=O)NCc2ccc(F)cc2)n3C)c1` [Compound 32, 5-(2-chloro-5-(isobutyramidomethyl)benzamido)-N-(4-fluorobenzyl)-1-methyl-1H-indole-2-carboxamide] the figure was 9.62 nM; with `CC(C)C(=O)NCc1ccc(Cl)c(C(=O)Nc2ccc3c(c2)cc(C(=O)NCc2ccc(C(C)(C)C)cc2)n3C)c1` [Compound 33, N-(4-(tert-butyl)benzyl)-5-(2-chloro-5-(isobutyramidomethyl)benzamido)-1-methyl-1H-indole-2-carboxamide], 9.59 nM; with `CC(C)C(=O)NCc1ccc(Cl)c(C(=O)Nc2ccc3c(c2)cc(C(=O)NCc2ccc(C(F)(F)F)cc2)n3C)c1` [Compound 34, 5-(2-chloro-5-(isobutyramidomethyl)benzamido)-1-methyl-N-(4-(trifluoromethyl)benzyl)-1H-indole-2-carboxamide], 7.9 nM. With `CC(C)C(=O)NCc1ccc(Cl)c(C(=O)Nc2ccc3c(c2)cc(C(=O)NCc2ccccc2C(F)(F)F)n3C)c1` [Compound 35, 5-(2-chloro-5-(isobutyramidomethyl)benzamido)-1-methyl-N-(2-(trifluoromethyl)benzyl)-1H-indole-2-carboxamide] the figure was 10.4 nM; with `CC(C)C(=O)NCc1ccc(Cl)c(C(=O)Nc2ccc3c(c2)cc(C(=O)NC(C)c2ccc(C(F)(F)F)cc2)n3C)c1` (centres unmarked) [Compound 47, 5-(2-chloro-5-(isobutyramidomethyl)benzamido)-1-methyl-N-(1-(4-(trifluoromethyl)phenyl)ethyl)-1H-indole-2-carboxamide], 5.82 nM. For the molecule `CC(C)C(=O)NCc1ccc(Cl)c(C(=O)Nc2ccc3c(c2)cc(C(=O)NCc2ccc(Cl)cc2)n3C)c1` [Compound 49, 5-(2-chloro-5-(isobutyramidomethyl)benzamido)-N-(4-chlorobenzyl)-1-methyl-1H-indole-2-carboxamide], the IC50 was 9.75 nM. With `CC(C)C(=O)NCc1ccc(Cl)c(C(=O)Nc2ccc3c(c2)cc(C(=O)NCc2ccc(F)c(Cl)c2)n3C)c1` [Compound 56, N-(3-chloro-4-fluorobenzyl)-5-(2-chloro-5-(isobutyramidomethyl)benzamido)-1-methyl-1H-indole-2-carboxamide] the figure was 59.2 nM; with `CC(C)C(=O)NCc1ccc(Cl)c(C(=O)Nc2ccc3c(c2)cc(C(=O)N[C@H](C)c2ccc(C(F)(F)F)cc2)n3C)c1` [Compound 58, (R)-5-(2-chloro-5-(isobutyramidomethyl)benzamido)-1-methyl-N-(1-(4-(trifluoromethyl)phenyl)ethyl)-1H-indole-2-carboxamide], 5.54 nM.

In turn, `CC(C)C(=O)NCc1ccc(Cl)c(C(=O)Nc2ccc3c(c2)cc(C(=O)N[C@H](C)c2ccc(OC(F)(F)F)cc2)n3C)c1` [Compound 59, (R)-5-(2-chloro-5-(isobutyramidomethyl)benzamido)-1-methyl-N-(1-(4-(trifluoromethoxy)phenyl)ethyl)-1H-indole-2-carboxamide] registered an IC50 of 9.5 nM.

`CC(C)C(=O)NCc1ccc(Cl)c(C(=O)Nc2ccc3c(c2)cc(C(=O)N[C@@H](C)c2ccc(C(F)(F)F)cc2)n3C)c1` [Compound 60, (S)-5-(2-chloro-5-(isobutyramidomethyl)benzamido)-1-methyl-N-(1-(4-(trifluoromethyl)phenyl)ethyl)-1H-indole-2-carboxamide] returned an IC50 of 30.3 nM. On to `CC(C)C(=O)NCc1ccc(Cl)c(C(=O)Nc2ccc3c(c2)cc(C(=O)N[C@@H](C)c2ccc(OC(F)(F)F)cc2)n3C)c1` [Compound 61, (S)-5-(2-chloro-5-(isobutyramidomethyl)benzamido)-1-methyl-N-(1-(4-(trifluoromethoxy)phenyl)ethyl)-1H-indole-2-carboxamide], for which the IC50 came to 51.6 nM. With `CC(C)C(=O)NCc1ccc(Cl)c(C(=O)Nc2ccc3c(c2)cc(C(=O)NCc2ccc(C(C)(C)C)cc2)n3CC(F)(F)F)c1` [Compound 62, N-(4-(tert-butyl)benzyl)-5-(2-chloro-5-(isobutyramidomethyl)benzamido)-1-(2,2,2-trifluoroethyl)-1H-indole-2-carboxamide] the figure was 27.5 nM. Regarding `CC(C)C(=O)NCc1ccc(Cl)c(C(=O)Nc2ccc3c(c2)cc(C(=O)NCc2ccccc2C(F)(F)F)n3CC(F)(F)F)c1` [Compound 63, 5-(2-chloro-5-(isobutyramidomethyl)benzamido)-1-(2,2,2-trifluoroethyl)-N-(2-(trifluoromethyl)benzyl)-1H-indole-2-carboxamide], the IC50 was 14.8 nM.

Molecule `CC(C)C(=O)NCc1ccc(Cl)c(C(=O)Nc2ccc3c(c2)cc(C(=O)NCc2ccc(C(F)(F)F)cc2)n3CC(F)(F)F)c1` [Compound 64, 5-(2-chloro-5-(isobutyramidomethyl)benzamido)-1-(2,2,2-trifluoroethyl)-N-(4-(trifluoromethyl)benzyl)-1H-indole-2-carboxamide] showed an IC50 of 9.38 nM. The molecule `CC(C)C(=O)NCc1ccc(Cl)c(C(=O)Nc2ccc3c(c2)cc(C(=O)N[C@@H](C)c2ccc4ccccc4c2)n3CC(F)(F)F)c1` [Compound 65, (S)-5-(2-chloro-5-(isobutyramidomethyl)benzamido)-N-(1-(naphthalen-2-yl)ethyl)-1-(2,2,2-trifluoroethyl)-1H-indole-2-carboxamide] returned an IC50 of 2.71 nM.
